Measurements reported in patent US20150087673A1, “METHODS FOR USING AND BIOMARKERS FOR AMPK-ACTIVATING COMPOUNDS” (RIGEL PHARMACEUTICALS, INC., priority 2013, published 2015).
Marks after values point to notes of the source that are not given here.

Tested on: db/db mice
Experiment: Metabolomics study: metabolite profiling of liver, muscle, adipose tissue and plasma of treated db/db mice
Type: in vivo, mouse
Experimental: Maledb/db mice (8 weeks) were orally gavaged once daily with either vehicle or 10 mg/kg compound 309. Liver, muscle, adipose tissue, and plasma from treated mice (n=6/treatment group) were collected 30 minutes after dosing both on day 3 of treatment. Frozen tissue and plasma samples were sent to Metabolon for unbiased metabolite analysis [(Durham, N.C.) See, Evans A, DeHaven C, Barrett T, Mitchell M, Milgram E (2009)—Integrated, nontargeted ultrahigh performance liquid chromatography/electrospray ionization tandem mass spectrometry platform for the identification and relative quantification of the small-molecule complement of biological systems. Anal Chem 81: 6656-6667. Lawton K, Berger A, Mitchell M, Milgram K, Evans A, et al. (2008)—Analysis of the adult human plasma metabolome. Pharmacogenomics 9: 383-397. Reitman Z J, Jin G, Karoly E D, Spasojevic I, Yang J, et al. (2011) Profiling the effects of isocitrate dehydrogenase 1 and 2 mutations on the cellular metabolome. PNAS 108: […].] Biochemical data were analyzed using Welch's two-sample t-tests.
Metabolite profiling of tissues from db/db mice orally dosed with either vehicle or 10 mg/kg compound 309 was used to characterize in detail the effects of the present AMPK activators on nutrient pathways in a commonly used mouse model of type 2 diabetes. […] Since AMPK activation results in both acute and chronic changes to metabolic pathways, samples from non-fasted mice treated for three days with compound 309 were analyzed. Samples were collected thirty minutes after compound dosing when compound 309 plasma levels as well as tissue AMPK activation were maximal.

[1] = Adipose, 10 mg/kg oral once daily, day 3, 30 min after dosing
[2] = Liver, 10 mg/kg oral once daily, day 3, 30 min after dosing
[3] = Muscle, 10 mg/kg oral once daily, day 3, 30 min after dosing
[4] = Plasma, 10 mg/kg oral once daily, day 3, 30 min after dosing

For `COc1ccc(C(=O)C2CCN(C(=O)c3ccc(C(=O)NC4CCN(Cc5ccc(C#N)cc5)CC4)cn3)CC2)cc1` [Compound 309, N-(1-(4-cyanobenzyl)piperidin-4-yl)-6-(4-(4-methoxybenzoyl)piperidine-1-carbonyl)nicotinamide], the “relative levels of the other amino acids” value (10 mg/kg) was “not similarly affected”, the “2-methylbutyrlcarnitine (C5) Ratio (Compound 309/Vehicle)” value [1] was 0.57^†† and the “3-hydroxybutyrate (BHBA) Ratio (Compound 309/Vehicle)” value [1] was 1.68**. For the same compound, the “3-hydroxyisobutyrate Ratio (Compound 309/Vehicle)” value [1] was 1.13, the “3-methyl-2-oxobutyrate Ratio (Compound 309/Vehicle)” value [1] was 1 and the “3-methyl-2-oxovalerate Ratio (Compound 309/Vehicle)” value [1] was 1.31**. For the same compound, the “4-methyl-2-oxopentanoate Ratio (Compound 309/Vehicle)” value [1] was 1.23, the “alanine Ratio (Compound 309/Vehicle)” value [1] was 1 and the “arginine Ratio (Compound 309/Vehicle)” value [1] was 0.86^††. The “asparagine Ratio (Compound 309/Vehicle)” value [1] was 0.84, the “aspartate Ratio (Compound 309/Vehicle)” value [1] was 0.72^†† and the “butyrylcarnitine Ratio (Compound 309/Vehicle)” value [1] was 0.82. For the same compound, the “cysteine Ratio (Compound 309/Vehicle)” value [1] was 0.62^†, the “glutamate Ratio (Compound 309/Vehicle)” value [1] was 0.89 and the “glutamine Ratio (Compound 309/Vehicle)” value [1] was 0.95. For the same compound, the “glycine Ratio (Compound 309/Vehicle)” value [1] was 0.81, the “hydroxybutyrylcarnitine Ratio (Compound 309/Vehicle)” value [1] was 1.7** and the “hydroxylisovaleroyl carnitine Ratio (Compound 309/Vehicle)” value [1] was 0.86. For the same compound, the “isobutyrylcarnitine Ratio (Compound 309/Vehicle)” value [1] was 0.57^††, the “isoleucine Ratio (Compound 309/Vehicle)” value [1] was 0.73 and the “isovalerylcarnitine Ratio (Compound 309/Vehicle)” value [1] was 0.58^††. For the same compound, the “leucine Ratio (Compound 309/Vehicle)” value [1] was 0.78, the “lysine Ratio (Compound 309/Vehicle)” value [1] was 0.74 and the “methionine Ratio (Compound 309/Vehicle)” value [1] was 0.87. The “phenylalanine Ratio (Compound 309/Vehicle)” value [1] was 0.82, the “proline Ratio (Compound 309/Vehicle)” value [1] was 0.86 and the “propionylcarnitine Ratio (Compound 309/Vehicle)” value [1] was 0.77. The “serine Ratio (Compound 309/Vehicle)” value [1] was 0.85, the “threonine Ratio (Compound 309/Vehicle)” value [1] was 0.77^† and the “tryptophan Ratio (Compound 309/Vehicle)” value [1] was 0.9. The “tyrosine Ratio (Compound 309/Vehicle)” value [1] was 0.85, the “valine Ratio (Compound 309/Vehicle)” value [1] was 0.81 and the “2-methylbutyrlcarnitine (C5) Ratio (Compound 309/Vehicle)” value [2] was 0.76. For the same compound, the “3-hydroxybutyrate (BHBA) Ratio (Compound 309/Vehicle)” value [2] was 1.15, the “3-methylglutaryl carnitine (C6) Ratio (Compound 309/Vehicle)” value [2] was 0.57^†† and the “N-acetylleucine Ratio (Compound 309/Vehicle)” value [2] was 0.94. The “alanine Ratio (Compound 309/Vehicle)” value [2] was 1.4**, the “alpha-hydroxyisovalerate Ratio (Compound 309/Vehicle)” value [2] was 0.86 and the “arginine Ratio (Compound 309/Vehicle)” value [2] was 1.67. The “aspartate Ratio (Compound 309/Vehicle)” value [2] was 1.59**, the “butyrylglycine Ratio (Compound 309/Vehicle)” value [2] was 0.41^†† and the “cysteine Ratio (Compound 309/Vehicle)” value [2] was 0.97. The “glutamate Ratio (Compound 309/Vehicle)” value [2] was 1.61**, the “glutamine Ratio (Compound 309/Vehicle)” value [2] was 1.04 and the “glycine Ratio (Compound 309/Vehicle)” value [2] was 0.96. The “histidine Ratio (Compound 309/Vehicle)” value [2] was 1.16*, the “hydroxybutyrylcarnitine Ratio (Compound 309/Vehicle)” value [2] was 1.45** and the “hydroxylisovaleroyl carnitine Ratio (Compound 309/Vehicle)” value [2] was 1. The “isoleucine Ratio (Compound 309/Vehicle)” value [2] was 0.86^††, the “isovalerylcarnitine Ratio (Compound 309/Vehicle)” value [2] was 0.54^†† and the “leucine Ratio (Compound 309/Vehicle)” value [2] was 0.94. For the same compound, the “lysine Ratio (Compound 309/Vehicle)” value [2] was 1.11*, the “methionine Ratio (Compound 309/Vehicle)” value [2] was 1.03 and the “phenylalanine Ratio (Compound 309/Vehicle)” value [2] was 0.96. The “proline Ratio (Compound 309/Vehicle)” value [2] was 0.94, the “propionylcarnitine Ratio (Compound 309/Vehicle)” value [2] was 0.73 and the “serine Ratio (Compound 309/Vehicle)” value [2] was 1.19. The “threonine Ratio (Compound 309/Vehicle)” value [2] was 0.94, the “tryptophan Ratio (Compound 309/Vehicle)” value [2] was 0.99 and the “tyrosine Ratio (Compound 309/Vehicle)” value [2] was 1.08. The “valine Ratio (Compound 309/Vehicle)” value [2] was 0.87^††, the “2-methylbutyrlcarnitine (C5) Ratio (Compound 309/Vehicle)” value [3] was 0.63^†† and the “3-hydroxybutyrate (BHBA) Ratio (Compound 309/Vehicle)” value [3] was 2.2**. For the same compound, the “3-hydroxyisobutyrate Ratio (Compound 309/Vehicle)” value [3] was 1.33*, the “3-methyl-2-oxovalerate Ratio (Compound 309/Vehicle)” value [3] was 0.78 and the “4-methyl-2-oxopentanoate Ratio (Compound 309/Vehicle)” value [3] was 0.96. The “alanine Ratio (Compound 309/Vehicle)” value [3] was 0.96, the “alpha-hydroxyisovalerate Ratio (Compound 309/Vehicle)” value [3] was 0.85 and the “arginine Ratio (Compound 309/Vehicle)” value [3] was 0.71. The “aspartate Ratio (Compound 309/Vehicle)” value [3] was 0.82, the “butyrylcarnitine Ratio (Compound 309/Vehicle)” value [3] was 0.62 and the “butyrylglycine Ratio (Compound 309/Vehicle)” value [3] was 1.07. The “glutamate Ratio (Compound 309/Vehicle)” value [3] was 1.15, the “glutamine Ratio (Compound 309/Vehicle)” value [3] was 1.04 and the “glycine Ratio (Compound 309/Vehicle)” value [3] was 0.96. For the same compound, the “histidine Ratio (Compound 309/Vehicle)” value [3] was 1, the “hydroxybutyrylcarnitine Ratio (Compound 309/Vehicle)” value [3] was 1.34* and the “hydroxylisovaleroyl carnitine Ratio (Compound 309/Vehicle)” value [3] was 0.86^†. The “isobutyrylcarnitine Ratio (Compound 309/Vehicle)” value [3] was 0.64^††, the “isoleucine Ratio (Compound 309/Vehicle)” value [3] was 0.81^†† and the “isovalerylcarnitine Ratio (Compound 309/Vehicle)” value [3] was 0.58^††. For the same compound, the “leucine Ratio (Compound 309/Vehicle)” value [3] was 0.83^†, the “lysine Ratio (Compound 309/Vehicle)” value [3] was 0.96 and the “methionine Ratio (Compound 309/Vehicle)” value [3] was 0.78^†. The “phenylalanine Ratio (Compound 309/Vehicle)” value [3] was 0.91, the “proline Ratio (Compound 309/Vehicle)” value [3] was 0.92 and the “propionylcarnitine Ratio (Compound 309/Vehicle)” value [3] was 0.87^†. The “serine Ratio (Compound 309/Vehicle)” value [3] was 0.89, the “threonine Ratio (Compound 309/Vehicle)” value [3] was 0.89 and the “tiglyl carnitine Ratio (Compound 309/Vehicle)” value [3] was 0.98. The “tryptophan Ratio (Compound 309/Vehicle)” value [3] was 0.95, the “tyrosine Ratio (Compound 309/Vehicle)” value [3] was 0.96 and the “valine Ratio (Compound 309/Vehicle)” value [3] was 0.77^††. For the same compound, the “2-hydroxy-3-methylvalerate Ratio (Compound 309/Vehicle)” value [4] was 0.91, the “2-methylbutyrlcarnitine (C5) Ratio (Compound 309/Vehicle)” value [4] was 0.56^†† and the “3-hydroxybutyrate (BHBA) Ratio (Compound 309/Vehicle)” value [4] was 1.93**. For the same compound, the “3-hydroxyisobutyrate Ratio (Compound 309/Vehicle)” value [4] was 1.69**, the “3-methyl-2-oxobutyrate Ratio (Compound 309/Vehicle)” value [4] was 1.17 and the “3-methyl-2-oxovalerate Ratio (Compound 309/Vehicle)” value [4] was 1.06. The “3-methylglutaryl carnitine (C6) Ratio (Compound 309/Vehicle)” value [4] was 0.55^††, the “4-methyl-2-oxopentanoate Ratio (Compound 309/Vehicle)” value [4] was 1.05 and the “N-acetylisoleucisne Ratio (Compound 309/Vehicle)” value [4] was 1.11. For the same compound, the “N-acetylleucine Ratio (Compound 309/Vehicle)” value [4] was 0.96, the “alanine Ratio (Compound 309/Vehicle)” value [4] was 1.22 and the “alpha-hydroxyisocaproate Ratio (Compound 309/Vehicle)” value [4] was 0.91. The “alpha-hydroxyisovalerate Ratio (Compound 309/Vehicle)” value [4] was 0.91, the “arginine Ratio (Compound 309/Vehicle)” value [4] was 0.95 and the “asparagine Ratio (Compound 309/Vehicle)” value [4] was 0.89. The “butyrylcarnitine Ratio (Compound 309/Vehicle)” value [4] was 0.65^†, the “butyrylglycine Ratio (Compound 309/Vehicle)” value [4] was 0.41^†† and the “cysteine Ratio (Compound 309/Vehicle)” value [4] was 0.94. The “glutamate Ratio (Compound 309/Vehicle)” value [4] was 1.22*, the “glutamine Ratio (Compound 309/Vehicle)” value [4] was 1.03 and the “glycine Ratio (Compound 309/Vehicle)” value [4] was 1.03. For the same compound, the “histidine Ratio (Compound 309/Vehicle)” value [4] was 0.99, the “hydroxybutyrylcarnitine Ratio (Compound 309/Vehicle)” value [4] was 2.28** and the “isobutyrylcarnitine Ratio (Compound 309/Vehicle)” value [4] was 0.41^††. The “isoleucine Ratio (Compound 309/Vehicle)” value [4] was 0.75^††, the “isovalerylcarnitine Ratio (Compound 309/Vehicle)” value [4] was 0.45^†† and the “isovalerylglycine Ratio (Compound 309/Vehicle)” value [4] was 0.67^††. For the same compound, the “leucine Ratio (Compound 309/Vehicle)” value [4] was 0.75^†, the “lysine Ratio (Compound 309/Vehicle)” value [4] was 0.91 and the “methionine Ratio (Compound 309/Vehicle)” value [4] was 0.88. For the same compound, the “phenylalanine Ratio (Compound 309/Vehicle)” value [4] was 0.87, the “proline Ratio (Compound 309/Vehicle)” value [4] was 0.96 and the “propionylcarnitine Ratio (Compound 309/Vehicle)” value [4] was 1.07. The “serine Ratio (Compound 309/Vehicle)” value [4] was 0.83^†, the “threonine Ratio (Compound 309/Vehicle)” value [4] was 0.9 and the “tigloylglycine Ratio (Compound 309/Vehicle)” value [4] was 0.96. The “tryptophan Ratio (Compound 309/Vehicle)” value [4] was 1.02, the “tyrosine Ratio (Compound 309/Vehicle)” value [4] was 1.11 and the “valine Ratio (Compound 309/Vehicle)” value [4] was 0.91. For the same compound, the hydroxybutyrylcarnitine levels (all compartments sampled, 10 mg/kg) was “similarly increased”, the “intermediates of the catabolic pathways of all three BCAA” value (all three major metabolic organs and plasma, 10 mg/kg) was “Marked reductions” and the “effects on glucose metabolic pathways in global metabolite profiling” value (data not shown) was “no dramatic effects”. For the same compound, the “relative levels of butyrylglycine and butyrylcarnitine” value (liver and plasma, 10 mg/kg) was “reduction”, the “BHBA level vs vehicle” value (liver, 10 mg/kg oral once daily, day 3) was “no difference” and the “3-hydroxybutyrate (BHBA) level vs vehicle” value (muscle, fat and plasma, 10 mg/kg oral once daily, day 3) was “significant elevation”.
